In patent US12521440B2, “Degradation of bruton's tyrosine kinase (BTK) by conjugation of BTK inhibitors with E3 ligase ligand and methods of use” (BeOne Medicines I GmbH, priority 2021, dated 2026):

Experiments:
HEK-293 cells = assay: HEK-293 cytotoxicity detection (CellTiter-Glo); format: cell-based; conditions: Homo sapiens, 72 h incubation, read-out: HEK293
Summary of the method: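 HEK-293 cells exposed 72 h to 8 compound concentrations (4-fold dilution series, 0.2% DMSO). Viability read as CellTiter-Glo luminescence; IC50 from four-parameter logistic fit of percent inhibition.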

BTK = target: T1, BTK (Homo sapiens, UniProt Q06187); assay: BTK degradation in TMD-8 cells (HTRF assay); format: cell-based; conditions: 6 h treatment, HTRF BTK degradation IC50 (DC50)
T1 construct: endogenous in cells; host or cells: TMD-8 cells
Summary of the method: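 TMD-8 cells exposed to 8 concentrations (6-fold serial dilution from 1 mM 500× DMSO stocks; 0.2% DMSO final) for 6 h. Lysates incubated overnight at room temperature with HTRF antibodies, read at 665/620 nm. DC50 from four-parameter logistic fit of percent inhibition.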

T1 sequence (Q06187 whole entry): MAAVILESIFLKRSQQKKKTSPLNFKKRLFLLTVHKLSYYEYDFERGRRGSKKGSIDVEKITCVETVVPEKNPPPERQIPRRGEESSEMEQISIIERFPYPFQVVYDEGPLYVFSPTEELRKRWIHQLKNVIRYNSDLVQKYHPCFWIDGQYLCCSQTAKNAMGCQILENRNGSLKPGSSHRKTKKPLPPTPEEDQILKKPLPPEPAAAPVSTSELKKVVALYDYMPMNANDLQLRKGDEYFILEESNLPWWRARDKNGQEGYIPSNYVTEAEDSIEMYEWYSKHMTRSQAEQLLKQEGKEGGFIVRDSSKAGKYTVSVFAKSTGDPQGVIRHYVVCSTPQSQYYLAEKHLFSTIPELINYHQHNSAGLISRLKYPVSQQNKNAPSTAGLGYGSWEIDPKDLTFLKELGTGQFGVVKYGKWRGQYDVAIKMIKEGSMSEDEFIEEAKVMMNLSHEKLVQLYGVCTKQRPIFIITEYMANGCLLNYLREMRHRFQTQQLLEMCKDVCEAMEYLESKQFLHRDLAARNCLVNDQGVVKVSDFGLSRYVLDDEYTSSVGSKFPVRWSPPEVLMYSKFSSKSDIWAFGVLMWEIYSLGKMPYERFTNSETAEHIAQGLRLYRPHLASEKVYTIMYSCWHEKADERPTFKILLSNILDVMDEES

SMILES	DC50 (BTK) [nM]	IC50 (HEK-293 cells) [nM]
Cc1cc(-c2cc(Nc3ccc(N4CCN(CCn5cccc(CN6CCC(=O)NC6=O)c5=O)CC4)cn3)ncn2)ccc1[C@@H](C)NC(=O)c1nc(C(C)(C)C)no1 [Example 58, (R)-3-(tert-butyl)-N-(1-(4-(6-((5-(4-(2-(3-((2,4-dioxotetrahydropyrimidin-1(2H)-yl)methyl)-2-oxopyridin-1(2H)-yl)ethyl)piperazin-1-yl)pyridin-2-yl)amino)pyrimidin-4-yl)-2-methylphenyl)ethyl)-1,2,4-oxadiazole-5-carboxamide]	0.276	> 10000
Cc1cc(-c2cc(Nc3ccc(N4CCN(CC5CCN(c6ccc(CN7CCC(=O)NC7=O)cc6)CC5)CC4)cn3)ncn2)ccc1[C@@H](C)NC(=O)c1nc(C(C)(C)C)no1 [Example 59, (R)-3-(tert-butyl)-N-(1-(4-(6-((5-(4-((1-(4-((2,4-dioxotetrahydropyrimidin-1(2H)-yl)methyl)phenyl)piperidin-4-yl)methyl)piperazin-1-yl)pyridin-2-yl)amino)pyrimidin-4-yl)-2-methylphenyl)ethyl)-1,2,4-oxadiazole-5-carboxamide]	10.2	> 10000
CCc1nc(Nc2cc(-c3ccc([C@@H](C)NC(=O)c4nc(C(C)(C)C)no4)c(C)c3)ncn2)ccc1N1CCN(CC2CCN(c3ccc(N4CCC(=O)NC4=O)cc3)CC2)CC1 [Example 60, (R)-3-(tert-butyl)-N-(1-(4-(6-((5-(4-((1-(4-(2,4-dioxotetrahydropyrimidin-1(2H)-yl)phenyl)piperidin-4-yl)methyl)piperazin-1-yl)-6-ethylpyridin-2-yl)amino)pyrimidin-4-yl)-2-methylphenyl)ethyl)-1,2,4-oxadiazole-5-carboxamide]	3.93	> 10000
Cc1cc(-c2cc(Nc3ccc(N4CCN(CC5CCN(c6ccc(N7CCC(=O)NC7=O)cc6)CC5)CC4)c(C)n3)ncn2)ccc1[C@@H](C)NC(=O)c1nc(C(C)(C)C)no1 [Example 61, (R)-3-(tert-butyl)-N-(1-(4-(6-((5-(4-((1-(4-(2,4-dioxotetrahydropyrimidin-1(2H)-yl)phenyl)piperidin-4-yl)methyl)piperazin-1-yl)-6-methylpyridin-2-yl)amino)pyrimidin-4-yl)-2-methylphenyl)ethyl)-1,2,4-oxadiazole-5-carboxamide]	1.65	> 10000
Cc1cc(-c2cc(Nc3cc(C)c(N4CCN(CC5CCN(c6ccc(N7CCC(=O)NC7=O)cc6)CC5)CC4)cn3)ncn2)ccc1[C@@H](C)NC(=O)c1nc(C(C)(C)C)no1 [Example 62]	12.3	> 10000
COc1nc(Nc2cc(-c3ccc([C@@H](C)NC(=O)c4nc(C(C)(C)C)no4)c(C)c3)ncn2)ccc1N1CCN(CC2CCN(c3ccc(N4CCC(=O)NC4=O)cc3)CC2)CC1 [Example 63]	0.979	614
COc1cc(Nc2cc(-c3ccc([C@@H](C)NC(=O)c4nc(C(C)(C)C)no4)c(C)c3)ncn2)ncc1N1CCN(CC2CCN(c3ccc(N4CCC(=O)NC4=O)cc3)CC2)CC1 [Example 64, (R)-3-(tert-butyl)-N-(1-(4-(6-((5-(4-((1-(4-(2,4-dioxotetrahydropyrimidin-1(2H)-yl)phenyl)piperidin-4-yl)methyl)piperazin-1-yl)-4-methoxypyridin-2-yl)amino)pyrimidin-4-yl)-2-methylphenyl)ethyl)-1,2,4-oxadiazole-5-carboxamide]	26	> 10000
Cc1cc(-c2cc(Nc3cc(F)c(N4CCN(CC5CCN(c6ccc(N7CCC(=O)NC7=O)cc6)CC5)CC4)cn3)ncn2)ccc1[C@@H](C)NC(=O)c1nc(C(C)(C)C)no1 [Example 65]	3.7	> 10000
Cc1cc(-c2ccnc(Nc3ccc(N4CCN(CC5CCN(c6ccc(N7CCC(=O)NC7=O)cc6)CC5)CC4)c(F)n3)n2)ccc1[C@@H](C)NC(=O)c1nc(C(C)(C)C)no1 [Example 66, (R)-3-(tert-butyl)-N-(1-(4-(2-((5-(4-((1-(4-(2,4-dioxotetrahydropyrimidin-1(2H)-yl)phenyl)piperidin-4-yl)methyl)piperazin-1-yl)-6-fluoropyridin-2-yl)amino)pyrimidin-4-yl)-2-methylphenyl)ethyl)-1,2,4-oxadiazole-5-carboxamide]	2.93	> 10000

The next lines start with results.

DC50 (BTK) [nM]	SMILES	IC50 (HEK-293 cells) [nM]
10.6	Cc1cc(-c2ccnc(Nc3ccc(N4CCN(CC5CCN(c6ccc(N7CCC(=O)NC7=O)cc6)CC5)CC4)cn3)n2)ccc1[C@@H](C)NC(=O)c1nc(C(C)(C)C)no1 [Example 67, (R)-3-(tert-butyl)-N-(1-(4-(2-((5-(4-((1-(4-(2,4-dioxotetrahydropyrimidin-1(2H)-yl)phenyl)piperidin-4-yl)methyl)piperazin-1-yl)pyridin-2-yl)amino)pyrimidin-4-yl)-2-methylphenyl)ethyl)-1,2,4-oxadiazole-5-carboxamide]	> 10000
17.4	Cc1cc(-c2ccnc(Nc3ccc(N4CCN(C5CC6(CCN(c7ccc(N8CCC(=O)NC8=O)cc7)CC6)C5)CC4)cn3)n2)ccc1[C@@H](C)NC(=O)c1nc(C(C)(C)C)no1 [Example 68, (R)-3-(tert-butyl)-N-(1-(4-(2-((5-(4-(7-(4-(2,4-dioxotetrahydropyrimidin-1(2H)-yl)phenyl)-7-azaspiro[3.5]nonan-2-yl)piperazin-1-yl)pyridin-2-yl)amino)pyrimidin-4-yl)-2-methylphenyl)ethyl)-1,2,4-oxadiazole-5-carboxamide]	> 10000
2.42	Cc1cc(-c2ccnc(Nc3ccc(N4CCN(CC5CCN(c6ccc(N7CCC(=O)NC7=O)cc6)CC5)CC4)cc3)n2)ccc1[C@@H](C)NC(=O)c1nc(C(C)(C)C)no1 [Example 69, (R)-3-(tert-butyl)-N-(1-(4-(2-((4-(4-((1-(4-(2,4-dioxotetrahydropyrimidin-1(2H)-yl)phenyl)piperidin-4-yl)methyl)piperazin-1-yl)phenyl)amino)pyrimidin-4-yl)-2-methylphenyl)ethyl)-1,2,4-oxadiazole-5-carboxamide]	> 10000
> 2000	Cc1cc(-c2ncnc(Nc3ccc(N4CCN(CC5CCN(c6ccc(N7CCC(=O)NC7=O)cc6)CC5)CC4)cn3)c2F)ccc1[C@@H](C)NC(=O)c1nc(C(C)(C)C)no1 [Example 70, (R)-3-(tert-butyl)-N-(1-(4-(6-((5-(4-((1-(4-(2,4-dioxotetrahydropyrimidin-1(2H)-yl)phenyl)piperidin-4-yl)methyl)piperazin-1-yl)pyridin-2-yl)amino)-5-fluoropyrimidin-4-yl)-2-methylphenyl)ethyl)-1,2,4-oxadiazole-5-carboxamide]	> 10000
17.9	Cc1cc(-c2cc(Nc3ncc(N4CCN(CC5CCN(c6ccc(N7CCC(=O)NC7=O)cc6)CC5)CC4)s3)ncn2)c(F)cc1[C@@H](C)NC(=O)c1nc(C(C)(C)C)no1 [Example 71, (R)-3-(tert-butyl)-N-(1-(4-(6-((5-(4-((1-(4-(2,4-dioxotetrahydropyrimidin-1(2H)-yl)phenyl)piperidin-4-yl)methyl)piperazin-1-yl)thiazol-2-yl)amino)pyrimidin-4-yl)-5-fluoro-2-methylphenyl)ethyl)-1,2,4-oxadiazole-5-carboxamide]	> 10000
11.2	Cc1cc(-c2cc(Nc3nnc(N4CCN(CC5CCN(c6ccc(N7CCC(=O)NC7=O)cc6)CC5)CC4)s3)ncn2)ccc1[C@@H](C)NC(=O)c1nc(C(C)(C)C)no1 [Example 72, (R)-3-(tert-butyl)-N-(1-(4-(6-((5-(4-((1-(4-(2,4-dioxotetrahydropyrimidin-1(2H)-yl)phenyl)piperidin-4-yl)methyl)piperazin-1-yl)-1,3,4-thiadiazol-2-yl)amino)pyrimidin-4-yl)-2-methylphenyl)ethyl)-1,2,4-oxadiazole-5-carboxamide]	1910
